{"source": "patent US20040137582A1", "about": "“Methods for manufacturing polysaccharide derivatives” (priority 2002, published 2004)", "key": {"human skin fibroblasts [1]": {"tested_on": "human skin fibroblasts", "experiment": "Extraction assay, mitochondrial metabolic activity (MTT)", "conditions": "24 h", "method": "Cell culture. Primary human skin fibroblasts were grown in DMEM complete medium, at 37° C. in a fully humidified air containing 5% CO2 (IR auto Flow). The cells were fed every 2 to 3 days. When cells reached confluence, the culture medium was discarded and the cells washed with 5 mL of 10 mM phosphate buffered saline (PBS) pH 7.4 (Gibco). The cells were then detached with 2 mL of 0.05% (w/v) trypsin (1:250, from porcine pancreas (Sigma)) solution (PBS supplemented with 0.1% and 0.25% of α-D(+) glucose and EDTA, respectively) for 5 min at 37° C., and 3 mL of DMEM complete medium was added to inactivate the trypsin after cell detachment. The cells were centrifuged (10 min, 2500 rpm) and resuspended in culture medium before use. Cultures between the 3rd and 7th passages were used in the entire work.\nAll solutions were prepared on the day of application.\nExtraction assay. The extraction assay was performed in two sets of hydrogels. […] In the second set the hydrogels obtained after the polymerization reaction were immersed in 10 mL of 10 mM citrate-phosphate pH 7.0 and immediately autoclaved. Extracts were obtained by immersing autoclaved hydrogels in DMEM (without phenol red) culture medium supplemented with 1% of fungizone and 0.5% of gentamicin, at 37° C., for 5 days with agitation (120 rpm). The ratio between the surface area of the material and the volume of extraction medium was 3 cm^2/mL. Following incubation the medium containing the extract was collected, filtered (0.22 μm; to eliminate the possible presence of solid particles of the material) and supplemented with 10% of serum. Human skin fibroblasts were plated in 96-well plates (TPP, Switzerland) and grown to subconfluency. The culture medium was removed and replaced with the extract media for 24 h at 37° C. Phenol (64 g/L, BDH) which is considered cytotoxic^17, was used as a positive control. Culture medium without extracts, incubated as described above, was used as a negative control. Following incubation the extracts were discarded and the mitochondrial metabolic activity of the cells was measured with the MTT assay.\nMitochondrial metabolic activity assay. For 96-well plates, the cell layers were rinsed with PBS (110 μL) and 110 μL of MTT (0.45 mg/mL in DMEM complete medium w/o phenol red) was added to each well. For 6-well plates, after PBS washing (1 mL), 2.5 mL of MTT solution was added. After 3 h incubation at 37° C., the MTT solution was removed and the insoluble formazan crystals formed in the bottom of the wells were dissolved in 100 μL or 1 mL of DMSO, for 96 and 6-well plates respectively. The absorbance was measured at 540 nm using a plate reader (STL Spectra III, Austria)."}, "human skin fibroblasts [2]": {"tested_on": "human skin fibroblasts", "experiment": "Cell proliferation inhibition index (CPII) assay: direct contact assay", "conditions": "72 h", "method": "Cell proliferation inhibition index (CPII) assay: direct contact assay. […] Since each well has a surface area of 0.31 cm^2, the final seeding density was ca. 5×10^3 cells/cm^2. After 4 h (the cells were adherent to the well bottom), the culture medium was discarded and 200 μL of each test solution was added to each well. For the control culture, the medium was refreshed. Seventy-two hours after the addition of test solutions, the extracts were discarded and the cell layer was washed with PBS to remove remaining materials and loose cells. The metabolic activity of the cells was then measured with the MTT test (see below). The CPII was calculated using eq. 6: [formula]\nTo evaluate the CPII for dexT70-VA hydrogels (extracted for 3 days in water at 25° C. and then sterilized by autoclave), 3 mL of a fibroblast suspension containing 1.5×10^4 cells/mL was plated into each well of a 6-well plate, to yield a final density of 5×10^3 cells/cm^2. After 4 h, the culture medium was refreshed (3 mL) and the hydrogels were added to the wells, in direct contact with cells (FIG. 1A). For the control culture, the culture medium was refreshed. After 72 h of incubation, the metabolic activity of the cells was assessed as previously described and the CPII calculated according to eq.6.\nMitochondrial metabolic activity assay. […] The absorbance was measured at 540 nm using a plate reader (STL Spectra III, Austria)."}}}
{"compound": "N.N.O=S(=O)(O)OOS(=O)(=O)O", "note": "[APS, ammonium persulfate]", "values": [{"measurement": "effect on MMAF", "setting": "human skin fibroblasts [1]; concentrations above 2.5 μL/mL", "value": "significant (P<0.001) decrease in MMAF"}, {"measurement": "CPII", "setting": "human skin fibroblasts [2]; all concentrations", "value": "ca. 90%"}]}
{"compound": "CN(C)CCN(C)C", "note": "[TEMED, N,N,N′,N′-tetramethylenediamine]", "values": [{"measurement": "effect on MMAF", "setting": "human skin fibroblasts [1]; concentrations above 2.5 μL/mL", "value": "significant (P<0.001) decrease in MMAF"}, {"measurement": "CPII", "setting": "human skin fibroblasts [2]; above 2.5 μL/mL", "value": "the same phenomenon was observed"}]}
{"compound": "Dextran [reference compound]", "values": [{"measurement": "increase in the MMAF", "setting": "human skin fibroblasts [1]; solution 10 mg/mL", "value": "ca. 20%"}, {"measurement": "effect on MMAF", "setting": "human skin fibroblasts [1]; solution 20-100 mg/mL", "value": "not significant"}]}
